According to publication PMC7583056, “Synthesis, Characterisation and In Vitro Anticancer Activity of Catalytically Active Indole-Based Half-Sandwich Complexes” (Molecules, 2020):
Read-outs that look alike come from different tables or passages of the source.

Experiments:
A2780 cells = test: Chemosensitivity assay (MTT) in A2780 cells; format: cell-based; details: for IC50: 24 h exposure + 48 h recovery, MTT, mean ± SD, read-out: IC50 A2780
Source text: (§1) The antiproliferative activity of the ind-py ligand and of complexes 1–4 against ovarian cancer A2780 (cisplatin sensitive) and A2780cisR (cisplatin resistant) cell lines was studied. The IC50 values obtained for all the complexes are shown in Table 2, together with values for cisplatin, which was used as a positive control (untreated cells for 100% viability as negative control). […] One of the major limitations of existing anticancer drugs is their poor selectivity towards cancer cells. Comparing the response of the cancer cell lines to the normal PNT2 cells provides a preliminary indication towards the selectivity of the compounds.
(§2) In vitro chemosensitivity tests were performed against A2780, A2780cisR and PNT2 cells. Cells were routinely maintained as monolayer cultures in RPMI medium supplemented with 10% foetal calf serum, penicillin (100 I.U./mL) and streptomycin (100 μg/mL), sodium pyruvate (1 mM) and L-glutamine (2 mM). For chemosensitivity studies, cells were incubated in 96-well plates at a concentration of 7.5 × 10^3 cells per well and the plates were incubated for 24 h at 37 °C and a 5% CO2 humidified atmosphere prior to drug exposure.
(§3) Complexes were dissolved in DMSO to provide stock solutions, which were further diluted with media to provide a range of final concentrations. Drug-media solutions were added to cells (the final concentration of DMSO was less than 1% (v/v) in all cases) and incubated for 24 h at 37 °C and 5% CO2 humidified atmosphere. The drug-media was removed from the wells and the cells were washed with PBS (100 μL, twice), and 100 μL of complete fresh media were added to each well. The plates were further incubated for 48 h at 37 °C in a 5% CO2 humidified atmosphere to allow for a period of recovery. 3-(4,5-dimethylthiazol-2-yl)-2,5-diphenyltetrazolium bromide (MTT) (20 μL, 2.5 mg/mL) was added to each well and incubated for 2 h at 37 °C and 5% CO2 humidified atmosphere. All solutions were then removed and 100 μL of DMSO was added to each well in order to dissolve the purple formazan crystals. A Thermo Scientific Multiskan EX microplate photometer was used to measure the absorbance in each well at 570 nm. Cell survival was determined as the absorbance of treated cells divided by the absorbance of controls and expressed as a percentage. The IC50 values were determined from plots of % survival against drug concentration. Each experiment was repeated in triplicates of triplicates and a mean value was obtained and stated as IC50 (μM) ± SD. Cisplatin was also used as a positive control.

A2780cisR cells = test: Chemosensitivity assay (MTT) in A2780cisR cells; format: cell-based; details: for IC50: 24 h exposure + 48 h recovery, MTT, mean ± SD
Source text: as §1, §2, §3

PNT2 cells = test: Chemosensitivity assay (MTT) in PNT2 cells; format: cell-based; details: for IC50: 24 h exposure + 48 h recovery, MTT, mean ± SD
Source text: as §1, §2, §3

[1] = Stability and aquation in MeOD/D2O by 1H-NMR; format: physicochemical; details: MeOD/D2O 1:1 v/v, 1.1 mM, 298 K, over 24 h
Description: Owing to the limited aqueous solubility of the complexes, all the reactivity experiments were performed using a mixture MeOD/D2O (1:1 v/v) as a solvent. The stability of complexes 1–4 in MeOD/D2O was studied via ^1H-NMR spectroscopy over a period of 24 h. […] The stability of complexes 1–4 in dimethylsulfoxide (DMSO;1.1 mM) was also studied by ^1H-NMR spectroscopy over a period of 24 h (Figure S1). […] The ligand ind-py is also stable in MeOD/D2O over 24 h (Figure S1E).
Aquation of the monodentate ligand (X) is a common behaviour for half-sandwich complexes of the type [(arene/Cp)M(NUN)X] and it is usually considered an activation step, which allows further reactions with the corresponding targets. To study if aquation of complexes 1–4 occurs in MeOD/D2O (1:1 v/v), experiments in the presence of either one molar equivalent of silver nitrate (to force the release of the monodentate Cl^- ligand), or NaCl (to block hydrolysis), were performed.
Complexes 1–4 were dissolved in MeOD (2.2 mM) and diluted to a final concentration of 1.1 mM with either MeOD or D2O. ^1H-NMR spectra were recorded at t ≤ 10 min, 12 h and 24 h. The samples were then reacted with either 1 mol. equiv. of silver nitrate to obtain the fully hydrolysed species or NaCl to block hydrolysis.

Row | SMILES | IC50 (A2780 cells) | IC50 (A2780cisR cells) | IC50 (PNT2 cells) | Cytotoxicity against A2780 (in words) (A2780 cells; Figure S14) | IC50 (A2780 cells; Homo sapiens, A2780) | Cytotoxicity against A2780cisR (in words) (A2780cisR cells; Figure S14) | IC50 (A2780cisR cells; Homo sapiens, A2780cisR) | Cytotoxicity against PNT2 (in words) (PNT2 cells; Figure S14) | IC50 (PNT2 cells; Homo sapiens, PNT2) | Stability in MeOD/D2O [1]
1 | N.N.[Cl][Pt][Cl] [Cisplatin, reference compound] | 10.3 ± 0.5 µM | 22.4 ± 0.5 µM | 43 ± 3 µM |  |  |  |  |  |  | 
2 | c1ccc(-c2cc3ccccc3[nH]2)nc1 [Ind-py, 2-(2-pyridinyl)-1H-indole, reference compound] |  |  |  | non-cytotoxic | > 100 µM | non-cytotoxic | > 100 µM | non-cytotoxic | > 100 µM | stable
